One assay deals with T1, WEE1 (Homo sapiens, UniProt P30291+Q96SW2).
T1 construct: effects of the compounds of the present disclosure on the expression of target proteins in cells; endogenous in cells; host or cells: human PBMCs (hPBMCs)
In words: Western-blot assay, substrate protein degradation in hPBMCs: WEE1. The class given is cell-based. Particulars: 24 hours of compound treatment, 50 nM and 500 nM.

A further assay deals with T2, IKZF1 (Homo sapiens, UniProt Q13422+Q96SW2).
T2 construct: effects of the compounds of the present disclosure on the expression of target proteins in cells; endogenous in cells; host or cells: human PBMCs (hPBMCs)
The assay can be described thus: Western-blot assay, substrate protein degradation in hPBMCs: IKZF1. Format: cell-based. Particulars: 24 hours of compound treatment, 50 nM and 500 nM.

For a further assay, the target named is T3, IKZF2 (Homo sapiens, UniProt Q96SW2+Q9UKS7).
T3 construct: effects of the compounds of the present disclosure on the expression of target proteins in cells; endogenous in cells; host or cells: human PBMCs (hPBMCs)
T3 sequence (Q9UKS7 whole entry): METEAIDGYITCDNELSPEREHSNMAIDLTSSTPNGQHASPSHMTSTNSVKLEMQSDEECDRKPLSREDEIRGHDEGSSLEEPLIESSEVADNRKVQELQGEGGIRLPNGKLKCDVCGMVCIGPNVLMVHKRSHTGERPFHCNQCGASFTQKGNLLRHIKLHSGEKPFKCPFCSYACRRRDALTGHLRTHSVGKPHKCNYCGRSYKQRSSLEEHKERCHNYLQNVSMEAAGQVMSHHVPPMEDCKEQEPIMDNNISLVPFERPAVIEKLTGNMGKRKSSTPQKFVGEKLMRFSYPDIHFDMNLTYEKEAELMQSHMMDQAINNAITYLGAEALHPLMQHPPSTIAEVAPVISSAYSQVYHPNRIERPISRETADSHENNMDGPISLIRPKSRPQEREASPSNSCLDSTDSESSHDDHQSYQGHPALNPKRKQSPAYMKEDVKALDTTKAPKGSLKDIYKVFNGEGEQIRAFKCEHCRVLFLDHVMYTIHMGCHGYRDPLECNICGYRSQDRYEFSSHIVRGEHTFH
T3 sequence (Q96SW2 whole entry): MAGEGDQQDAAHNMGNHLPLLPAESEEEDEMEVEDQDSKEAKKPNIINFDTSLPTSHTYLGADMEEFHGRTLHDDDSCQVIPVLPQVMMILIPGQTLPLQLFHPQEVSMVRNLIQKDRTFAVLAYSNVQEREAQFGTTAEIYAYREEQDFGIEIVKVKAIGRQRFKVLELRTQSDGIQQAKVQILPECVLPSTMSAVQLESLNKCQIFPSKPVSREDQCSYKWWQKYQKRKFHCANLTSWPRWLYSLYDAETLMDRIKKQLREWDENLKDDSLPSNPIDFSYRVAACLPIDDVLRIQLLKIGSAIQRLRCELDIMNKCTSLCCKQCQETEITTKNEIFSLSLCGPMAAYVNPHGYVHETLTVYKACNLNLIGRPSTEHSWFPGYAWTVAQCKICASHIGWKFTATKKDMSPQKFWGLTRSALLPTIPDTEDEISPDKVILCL
T3 sequence (Q16531 whole entry partner): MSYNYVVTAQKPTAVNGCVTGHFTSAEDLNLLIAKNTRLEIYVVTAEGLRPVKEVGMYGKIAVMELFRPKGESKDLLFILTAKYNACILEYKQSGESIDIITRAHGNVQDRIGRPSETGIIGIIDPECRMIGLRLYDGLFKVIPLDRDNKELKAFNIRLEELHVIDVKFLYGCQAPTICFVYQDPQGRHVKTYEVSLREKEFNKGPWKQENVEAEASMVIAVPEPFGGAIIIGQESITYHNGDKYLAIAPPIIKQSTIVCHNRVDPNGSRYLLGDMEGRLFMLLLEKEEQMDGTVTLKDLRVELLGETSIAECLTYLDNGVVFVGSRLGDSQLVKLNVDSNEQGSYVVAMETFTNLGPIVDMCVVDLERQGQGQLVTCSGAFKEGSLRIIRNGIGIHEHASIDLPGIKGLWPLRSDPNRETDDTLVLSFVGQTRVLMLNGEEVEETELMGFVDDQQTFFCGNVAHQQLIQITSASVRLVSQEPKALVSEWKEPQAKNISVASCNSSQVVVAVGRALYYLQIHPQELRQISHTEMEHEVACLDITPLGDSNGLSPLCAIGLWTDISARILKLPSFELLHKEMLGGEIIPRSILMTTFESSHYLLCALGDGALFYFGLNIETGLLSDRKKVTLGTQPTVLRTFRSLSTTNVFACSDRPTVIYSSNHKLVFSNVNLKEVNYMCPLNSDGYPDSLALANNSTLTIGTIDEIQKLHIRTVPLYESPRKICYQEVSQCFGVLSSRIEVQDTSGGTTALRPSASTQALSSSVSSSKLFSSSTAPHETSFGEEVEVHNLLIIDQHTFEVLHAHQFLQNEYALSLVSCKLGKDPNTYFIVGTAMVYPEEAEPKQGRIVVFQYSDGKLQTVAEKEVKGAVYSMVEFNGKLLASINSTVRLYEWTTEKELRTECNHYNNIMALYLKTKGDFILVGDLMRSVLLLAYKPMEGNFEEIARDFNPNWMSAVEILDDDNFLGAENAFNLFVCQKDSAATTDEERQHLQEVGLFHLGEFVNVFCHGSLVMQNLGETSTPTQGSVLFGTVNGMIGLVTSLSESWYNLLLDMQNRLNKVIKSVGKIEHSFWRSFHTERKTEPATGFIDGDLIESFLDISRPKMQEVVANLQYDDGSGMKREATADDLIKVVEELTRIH
In words: Western-blot assay, substrate protein degradation in hPBMCs: IKZF2. Format: cell-based. Particulars: 24 hours of compound treatment, 50 nM and 500 nM.

The next assay has as its target T4, IKZF3 (Homo sapiens, UniProt Q96SW2+Q9UKT9).
T4 construct: effects of the compounds of the present disclosure on the expression of target proteins in cells; endogenous in cells; host or cells: human PBMCs (hPBMCs)
The assay can be described thus: Western-blot assay, substrate protein degradation in hPBMCs: IKZF3. The class given is cell-based. Particulars: 24 hours of compound treatment, 50 nM and 500 nM.

A further assay has as its target T5, CK1α (Homo sapiens, UniProt P48729+Q96SW2).
T5 construct: effects of the compounds of the present disclosure on the expression of target proteins in cells; endogenous in cells; host or cells: human PBMCs (hPBMCs)
The assay can be described thus: Western-blot assay, substrate protein degradation in hPBMCs: CK1α. The class given is cell-based. Particulars: 24 hours of compound treatment, 50 nM and 500 nM.

A further assay deals with T6, GSPT1 (Homo sapiens, UniProt P15170+Q96SW2).
T6 construct: effects of the compounds of the present disclosure on the expression of target proteins in cells; endogenous in cells; host or cells: human PBMCs (hPBMCs)
T6 sequence (P15170 whole entry): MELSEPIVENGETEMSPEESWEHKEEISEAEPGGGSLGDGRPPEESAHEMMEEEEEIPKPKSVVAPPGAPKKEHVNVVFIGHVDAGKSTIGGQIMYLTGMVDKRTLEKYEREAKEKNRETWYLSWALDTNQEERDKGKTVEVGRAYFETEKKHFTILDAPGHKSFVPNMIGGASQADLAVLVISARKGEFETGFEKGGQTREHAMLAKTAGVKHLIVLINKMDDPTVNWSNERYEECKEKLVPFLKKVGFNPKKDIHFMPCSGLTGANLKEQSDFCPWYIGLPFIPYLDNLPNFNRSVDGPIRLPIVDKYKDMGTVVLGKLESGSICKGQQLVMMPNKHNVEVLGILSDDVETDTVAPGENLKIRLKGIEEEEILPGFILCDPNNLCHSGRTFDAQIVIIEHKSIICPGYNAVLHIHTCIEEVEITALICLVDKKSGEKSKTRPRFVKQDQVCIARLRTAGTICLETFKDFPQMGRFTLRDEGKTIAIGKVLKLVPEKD
T6 sequence (Q96SW2 whole entry): as the sequence (Q96SW2 whole entry) above
T6 sequence (Q16531 whole entry partner): as the sequence (Q16531 whole entry partner) above
The assay can be described thus: Western-blot assay, substrate protein degradation in hPBMCs: GSPT1. Format: cell-based. Particulars: 24 hours of compound treatment, 50 nM and 500 nM.

The next assay has as its system H292. In words: Cell viability assay (CellTiter-Meiluncell Luminescent), tumor cell proliferation, H292. Particulars: Homo sapiens, NCI-H292, 96 h; for inhibition at 0.01 µM: read-out: Inhibition Rate at 10 nM (%); for inhibition at 0.5 µM: read-out: Inhibition Rate at 500 nM (%).
A further assay relates to H2228. In words: Cell viability assay (CellTiter-Meiluncell Luminescent), tumor cell proliferation, H2228. Particulars: Homo sapiens, NCI-H2228, 96 h; for inhibition at 0.01 µM: read-out: Inhibition Rate at 10 nM (%); for inhibition at 0.5 µM: read-out: Inhibition Rate at 500 nM (%).
The test system of a further assay is MDA-MB-231. In words: Cell viability assay (CellTiter-Meiluncell Luminescent), tumor cell proliferation, MDA-MB-231. Particulars: Homo sapiens, MDA-MB-231, 96 h; for inhibition at 0.01 µM: read-out: Inhibition Rate at 10 nM (%); for inhibition at 0.5 µM: read-out: Inhibition Rate at 500 nM (%).

Molecules are shown by their SMILES.

T5 sequence (P48729 whole entry): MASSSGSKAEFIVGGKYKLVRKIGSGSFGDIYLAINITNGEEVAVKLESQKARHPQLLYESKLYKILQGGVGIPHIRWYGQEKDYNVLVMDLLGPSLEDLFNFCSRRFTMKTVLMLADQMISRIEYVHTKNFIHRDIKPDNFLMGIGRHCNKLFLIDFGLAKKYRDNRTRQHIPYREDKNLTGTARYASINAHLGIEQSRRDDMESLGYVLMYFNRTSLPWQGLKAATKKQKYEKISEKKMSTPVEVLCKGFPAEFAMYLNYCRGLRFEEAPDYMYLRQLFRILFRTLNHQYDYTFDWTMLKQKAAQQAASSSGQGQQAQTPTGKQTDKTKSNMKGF
T5 sequence (Q96SW2 whole entry): as the sequence (Q96SW2 whole entry) above
T5 sequence (Q16531 whole entry partner): as the sequence (Q16531 whole entry partner) above
T1 sequence (P30291 whole entry): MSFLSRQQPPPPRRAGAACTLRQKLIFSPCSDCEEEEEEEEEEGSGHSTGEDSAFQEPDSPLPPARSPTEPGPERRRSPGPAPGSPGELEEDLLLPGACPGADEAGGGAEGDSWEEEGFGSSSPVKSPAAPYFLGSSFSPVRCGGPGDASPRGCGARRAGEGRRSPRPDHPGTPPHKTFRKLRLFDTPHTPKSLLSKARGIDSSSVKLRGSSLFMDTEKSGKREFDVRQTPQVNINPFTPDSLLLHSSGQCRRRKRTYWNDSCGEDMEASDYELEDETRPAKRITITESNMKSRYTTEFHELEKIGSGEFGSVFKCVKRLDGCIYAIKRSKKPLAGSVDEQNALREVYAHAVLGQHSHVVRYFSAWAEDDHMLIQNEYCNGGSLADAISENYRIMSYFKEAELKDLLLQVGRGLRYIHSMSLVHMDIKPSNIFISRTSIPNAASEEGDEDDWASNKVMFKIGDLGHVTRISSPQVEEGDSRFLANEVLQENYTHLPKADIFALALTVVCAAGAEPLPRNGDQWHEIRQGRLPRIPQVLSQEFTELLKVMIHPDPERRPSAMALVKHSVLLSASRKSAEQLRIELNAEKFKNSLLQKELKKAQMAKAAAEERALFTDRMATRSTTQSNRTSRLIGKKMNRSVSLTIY
T1 sequence (Q96SW2 whole entry): as the sequence (Q96SW2 whole entry) above
T1 sequence (Q16531 whole entry partner): as the sequence (Q16531 whole entry partner) above
T4 sequence (Q9UKT9 whole entry): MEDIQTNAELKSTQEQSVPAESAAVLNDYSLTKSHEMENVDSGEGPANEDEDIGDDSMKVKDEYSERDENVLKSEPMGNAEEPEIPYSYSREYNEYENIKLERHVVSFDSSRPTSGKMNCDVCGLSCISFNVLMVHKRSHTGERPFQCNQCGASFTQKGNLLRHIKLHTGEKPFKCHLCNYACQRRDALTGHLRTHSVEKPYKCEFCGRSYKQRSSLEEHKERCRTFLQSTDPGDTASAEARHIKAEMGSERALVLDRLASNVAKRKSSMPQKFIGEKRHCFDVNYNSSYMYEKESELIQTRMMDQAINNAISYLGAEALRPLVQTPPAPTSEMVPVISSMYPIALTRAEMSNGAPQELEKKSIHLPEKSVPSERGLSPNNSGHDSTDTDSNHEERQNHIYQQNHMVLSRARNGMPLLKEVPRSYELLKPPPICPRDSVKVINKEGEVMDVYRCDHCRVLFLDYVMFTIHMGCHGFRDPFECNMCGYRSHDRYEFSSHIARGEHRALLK
T4 sequence (Q96SW2 whole entry): as the sequence (Q96SW2 whole entry) above
T4 sequence (Q16531 whole entry partner): as the sequence (Q16531 whole entry partner) above
Procedure for H2228: The tumor cells used herein were cultured in a cell culture medium listed in table 2 at 37°C in an incubator with 5% CO2. Prior to experimentation, all cell lines used were correctly identified by STR profiling, and tested negative for mycoplasma contamination using a mycoplasma detection kit through routine screenings.
On the following day, the test compounds of the present disclosure were subjected to serial dilution. […] Subsequently, 0.5 µL of the test compound dilution was transferred into the 96-well plate containing the cells, with each well containing 100 µL of cell culture medium. […] Into the 96-well plate, the diluted test compounds and corresponding detection reagents were added, resulting in final test compound concentrations of 500 nM and 10 nM, respectively. The experimental procedure is described below using the diluted 2 µM test compound as an example.
After the cells were treated with the compounds of the present disclosure for a specified period, the cell viability assay reagent was added to the culture medium according to the kit's instructions to determine cell viability. […] All controls were treated using the same procedure as the compounds of the present disclosure. The growth inhibition curves for the compounds of the present disclosure were plotted using Prism GraphPad software, and the IC50 values were calculated therefrom.

Turning to `O=C1CCN(N2Cc3cc(CNC45CC6CC(CC(O)(C6)C4)C5)ccc3C2=O)C(=O)N1` [GT-07784, 1-(5-((((1r,3s,5R,7S)-3-hydroxyadamantan-1-yl)amino)methyl)-1-oxoisoindolin-2-yl)dihydropyrimidine-2,4(1H,3H)-dione], the “substrate protein remaining % WEE1” value on WEE1 was “B (80%< substrate protein remaining %≤ 100%)”. Further, the “substrate protein remaining % IKZF1” value at IKZF1 is listed as “B (80%< substrate protein remaining %≤ 100%)”. For the same compound, the “substrate protein remaining % IKZF2” value at IKZF2 is recorded as “A (0% ≤ substrate protein remaining % ≤ 80%)”. Also, the “substrate protein remaining % IKZF3” value at IKZF3 is “B (80%< substrate protein remaining %≤ 100%)”. Moreover, the “substrate protein remaining % CK1α” value on CK1α is given as “B (80%< substrate protein remaining %≤ 100%)”. Moreover, the “substrate protein remaining % GSPT1” value on GSPT1 is given as “B (80%< substrate protein remaining %≤ 100%)”. Besides, the inhibition at 0.01 µM in the assay with H292 lay within 20 to 40%; in the assay on H2228, 25 to 30%; in the assay with MDA-MB-231 it was 18 to 25%. Moreover, the values for the inhibition at 0.5 µM with H292, in the assay with H2228 and in the assay with MDA-MB-231 were 20 to 40%, 30 to 40% and 25 to 40%, respectively.
Turning to `O=C1CCN(N2C(=O)c3ccc(CNC45CC6CC(CC(O)(C6)C4)C5)cc3C2=O)C(=O)N1` [GT-07786, 2-(2,4-dioxotetrahydropyrimidin-1(2H)-yl)-5-((((1r,3s,5R,7S)-3-hydroxyadamantan-1-yl)amino)methyl)isoindoline-1,3-dione], at WEE1, the “substrate protein remaining % WEE1” value is listed as “B (80%< substrate protein remaining %≤ 100%)”. Besides, at IKZF1, the “substrate protein remaining % IKZF1” value is on record as “B (80%< substrate protein remaining %≤ 100%)”. Further, the “substrate protein remaining % IKZF2” value at IKZF2 was “B (80%< substrate protein remaining %≤ 100%)”. In addition, on IKZF3, the “substrate protein remaining % IKZF3” value is reported as “B (80%< substrate protein remaining %≤ 100%)”. For the same compound, the “substrate protein remaining % CK1α” value at CK1α is reported as “B (80%< substrate protein remaining %≤ 100%)”. Also, the “substrate protein remaining % GSPT1” value at GSPT1 is reported as “A (0% ≤ substrate protein remaining % ≤ 80%)”. Also, the inhibition at 0.01 µM is 10 to 15% with H292, 10 to 15% in the assay with H2228 and 15 to 18% in the assay on MDA-MB-231. The figures for the inhibition at 0.5 µM in the assay on H292, in the assay on H2228 and in the assay with MDA-MB-231 were 20 to 40%, 25 to 30% and 25 to 40%, respectively.
Turning to `O=C1CCN(N2Cc3cc(CN4CCN(c5ncnc6sccc56)CC4)ccc3C2=O)C(=O)N1` [GT-08057, 1-(1-oxo-5-((4-(thieno[2,3-d]pyrimidin-4-yl)piperazin-1-yl)methyl)isoindolin-2-yl)dihydropyrimidine-2,4(1H,3H)-dione], on WEE1, the “substrate protein remaining % WEE1” value is “B (80%< substrate protein remaining %≤ 100%)”. For the same compound, at IKZF1, the “substrate protein remaining % IKZF1” value was “A (0% ≤ substrate protein remaining % ≤ 80%)”. Moreover, on IKZF2, the “substrate protein remaining % IKZF2” value was “B (80%< substrate protein remaining %≤ 100%)”. In addition, at IKZF3, the “substrate protein remaining % IKZF3” value was “B (80%< substrate protein remaining %≤ 100%)”. Besides, the “substrate protein remaining % CK1α” value on CK1α is given as “B (80%< substrate protein remaining %≤ 100%)”. Moreover, the “substrate protein remaining % GSPT1” value at GSPT1 was “A (0% ≤ substrate protein remaining % ≤ 80%)”. Besides, the inhibition at 0.01 µM in the assay on H292 was in the range of 15 to 20%; with H2228 it was 30 to 40%; in the assay with MDA-MB-231 it was 25 to 40%. The inhibition at 0.5 µM in the assay with H292 was in the range of 15 to 20%; in the assay with H2228, 20 to 25%; in the assay on MDA-MB-231, 25 to 40%.
With `Cc1cc2c(N3CCN(Cc4ccc5c(c4)CN(N4CCC(=O)NC4=O)C5=O)CC3)ncnc2s1` [GT-08059, 1-(5-((4-(6-methylthieno[2,3-d]pyrimidin-4-yl)piperazin-1-yl)methyl)-1-oxoisoindolin-2-yl)dihydropyrimidine-2,4(1H,3H)-dione], on WEE1, the “substrate protein remaining % WEE1” value is listed as “B (80%< substrate protein remaining %≤ 100%)”. At IKZF1, the “substrate protein remaining % IKZF1” value is on record as “B (80%< substrate protein remaining %≤ 100%)”. Moreover, at IKZF2, the “substrate protein remaining % IKZF2” value was “B (80%< substrate protein remaining %≤ 100%)”. Moreover, on IKZF3, the “substrate protein remaining % IKZF3” value was “A (0% ≤ substrate protein remaining % ≤ 80%)”. Besides, the “substrate protein remaining % CK1α” value on CK1α is recorded as “B (80%< substrate protein remaining %≤ 100%)”. In addition, the “substrate protein remaining % GSPT1” value on GSPT1 was “B (80%< substrate protein remaining %≤ 100%)”. For the same compound, the inhibition at 0.01 µM is 20 to 40% in the assay on H292, 30 to 40% in the assay on H2228 and 25 to 40% with MDA-MB-231. Further, the results for the inhibition at 0.5 µM with H292, with H2228 and with MDA-MB-231 were 5 to 10%, 15 to 20% and 25 to 40%, respectively.
As to `CC(C)c1cc2c(N3CCN(Cc4ccc5c(c4)CN(N4CCC(=O)NC4=O)C5=O)CC3)ncnc2s1` [GT-08060, 1-(5-((4-(6-isopropylthieno[2,3-d]pyrimidin-4-yl)piperazin-1-yl)methyl)-1-oxoisoindolin-2-yl)dihydropyrimidine-2,4(1H,3H)-dione], the “substrate protein remaining % WEE1” value at WEE1 was “B (80%< substrate protein remaining %≤ 100%)”. In addition, at IKZF1, the “substrate protein remaining % IKZF1” value is given as “B (80%< substrate protein remaining %≤ 100%)”. In addition, the “substrate protein remaining % IKZF2” value on IKZF2 is recorded as “A (0% ≤ substrate protein remaining % ≤ 80%)”. The “substrate protein remaining % IKZF3” value at IKZF3 is “A (0% ≤ substrate protein remaining % ≤ 80%)”. Moreover, the “substrate protein remaining % CK1α” value on CK1α is listed as “B (80%< substrate protein remaining %≤ 100%)”. Moreover, on GSPT1, the “substrate protein remaining % GSPT1” value is “B (80%< substrate protein remaining %≤ 100%)”. Moreover, the inhibition at 0.01 µM fell in the range of 20 to 40% in the assay with H292, 20 to 25% in the assay on H2228 and 25 to 40% in the assay with MDA-MB-231. For the same compound, the inhibition at 0.5 µM with H292 is 20 to 40%; in the assay with H2228 it was 30 to 40%; in the assay on MDA-MB-231 it was 25 to 40%.
For the compound `Cc1sc2ncnc(N3CCN(Cc4ccc5c(c4)CN(N4CCC(=O)NC4=O)C5=O)CC3)c2c1C` [GT-08061, 1-(5-((4-(5,6-dimethylthieno[2,3-d]pyrimidin-4-yl)piperazin-1-yl)methyl)-1-oxoisoindolin-2-yl)dihydropyrimidine-2,4(1H,3H)-dione], on WEE1, the “substrate protein remaining % WEE1” value is on record as “B (80%< substrate protein remaining %≤ 100%)”. Besides, the “substrate protein remaining % IKZF1” value at IKZF1 is on record as “B (80%< substrate protein remaining %≤ 100%)”. Besides, the “substrate protein remaining % IKZF2” value at IKZF2 is recorded as “A (0% ≤ substrate protein remaining % ≤ 80%)”. In addition, the “substrate protein remaining % IKZF3” value on IKZF3 is “A (0% ≤ substrate protein remaining % ≤ 80%)”. Moreover, at CK1α, the “substrate protein remaining % CK1α” value is “B (80%< substrate protein remaining %≤ 100%)”. The “substrate protein remaining % GSPT1” value on GSPT1 is “B (80%< substrate protein remaining %≤ 100%)”. In addition, in the assay on H2228, the inhibition at 0.01 µM was in the range of 10 to 15% and the inhibition at 0.5 µM was in the range of 25 to 30%. In the assay on MDA-MB-231, the inhibition at 0.01 µM is 10 to 15% and the inhibition at 0.5 µM lay in the range of 18 to 25%.
`Cc1cc2c(C3CCN(Cc4ccc5c(c4)CN(N4CCC(=O)NC4=O)C5=O)CC3)ncnc2s1` [GT-08083, 1-(5-((4-(6-methylthieno[2,3-d]pyrimidin-4-yl)piperidin-1-yl)methyl)-1-oxoisoindolin-2-yl)dihydropyrimidine-2,4(1H,3H)-dione]: the “substrate protein remaining % WEE1” value at WEE1 is “B (80%< substrate protein remaining %≤ 100%)”. In addition, the “substrate protein remaining % IKZF1” value on IKZF1 is given as “B (80%< substrate protein remaining %≤ 100%)”. In addition, on IKZF2, the “substrate protein remaining % IKZF2” value is on record as “B (80%< substrate protein remaining %≤ 100%)”. The “substrate protein remaining % IKZF3” value on IKZF3 is reported as “B (80%< substrate protein remaining %≤ 100%)”. The “substrate protein remaining % CK1α” value at CK1α was “A (0% ≤ substrate protein remaining % ≤ 80%)”. Further, the “substrate protein remaining % GSPT1” value at GSPT1 is “A (0% ≤ substrate protein remaining % ≤ 80%)”. The inhibition at 0.01 µM with H292 lay in the range of 20 to 40%; in the assay with H2228 it was 25 to 30%; in the assay with MDA-MB-231, 25 to 40%. The inhibition at 0.5 µM in the assay with H292 fell in the range of 20 to 40%; in the assay with H2228 it was 30 to 40%; with MDA-MB-231 it was 25 to 40%.
For `O=C1CCN(N2Cc3cc(CN4CCC(c5ncnc6scc(-c7ccccc7)c56)CC4)ccc3C2=O)C(=O)N1` [GT-08086, 1-(1-oxo-5-((4-(5-phenylthieno[2,3-d]pyrimidin-4-yl)piperidin-1-yl)methyl)isoindolin-2-yl)dihydropyrimidine-2,4(1H,3H)-dione], the inhibition at 0.01 µM with H292 lay within 20 to 40%; in the assay on H2228, 20 to 25%; in the assay with MDA-MB-231, 25 to 40%. In addition, the inhibition at 0.5 µM in the assay on H292 is 20 to 40%; in the assay on H2228 it was 20 to 25%; in the assay with MDA-MB-231 it was 25 to 40%.

As usually defined, the inhibition is the relative decrease from the control value, in per cent.

Values taken from patent EP4722207A1, “OXOISOINDOLINYL-SUBSTITUTED TETRAHYDROPYRIMIDINEDIONE DERIVATIVE AND USE THEREOF” (Gluetacs Therapeutics (Shanghai) Co., Ltd., priority 2023, dated 2024).
